Experimental data: patent US10745382B2 (BRISTOL-MYERS SQUIBB COMPANY, priority 2015, dated 2020)

Biological target: T1, PD-1/PD-L1 (Homo sapiens, UniProt Q9NZQ7)
T1 construct: made in house; host or cells: HEK293T
Assay: PD-1/PD-L1 Homogenous Time-Resolved Fluorescence (HTRF) binding assay
Conditions: PD-L1-His 10 nM, PD-1-Ig 20 nM; value given as range class; read-out: Range or IC50
Outline: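 Read-out is time-resolved FRET between europium cryptate-labelled anti-Ig (1 nM final) and APC-labelled anti-His (20 nM final), both dispensed onto the binding mix. Assay buffer: dPBS containing 0.1% bovine serum albumin and 0.05% Tween-20.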

T1 sequence (Q9NZQ7 with tags, fused parts or gaps): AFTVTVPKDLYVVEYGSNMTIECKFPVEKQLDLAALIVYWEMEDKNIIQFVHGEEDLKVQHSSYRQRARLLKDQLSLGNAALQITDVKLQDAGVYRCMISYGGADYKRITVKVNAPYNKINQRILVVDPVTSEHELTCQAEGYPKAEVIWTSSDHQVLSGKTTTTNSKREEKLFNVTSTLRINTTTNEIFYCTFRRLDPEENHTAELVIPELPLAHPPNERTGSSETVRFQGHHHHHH

SMILES	IC50
Cc1cc(OCc2cccc(-c3cccc(OCCCN4CC[C@@H](O)C4)c3C)c2C)cc(OCc2cncc(C#N)c2)c1CNC(CO)CO [Example 4087, (R)-5-((2-(((1,3-dihydroxypropan-2-yl)amino)methyl)-5-((3′-(3-(3-hydroxypyrrolidin-1-yl)propoxy)-2,2′-dimethyl-[1,1′-biphenyl]-3-yl)methoxy)-3-methylphenoxy)methyl)nicotinonitrile]	0.21 to 10 nM
Cc1cc(OCc2cccc(-c3cccc(OCCCN4CC[C@@H](O)C4)c3C)c2C)cc(OCc2cncc(C#N)c2)c1CNC(C)(CO)CO [Example 4088, (R)-5-((2-(((1,3-dihydroxy-2-methylpropan-2-yl)amino)methyl)-5-((3′-(3-(3-hydroxypyrrolidin-1-yl)propoxy)-2,2′-dimethyl-[1,1′-biphenyl]-3-yl)methoxy)-3-methylphenoxy)methyl)nicotinonitrile]	0.21 to 10 nM
Cc1cc(OCc2cccc(-c3cccc(OCCCN4CC[C@@H](O)C4)c3C)c2C)cc(OCc2cncc(C#N)c2)c1CNC(CO)(CO)CO [Example 4089, (R)-5-((2-(((1,3-dihydroxy-2-(hydroxymethyl)propan-2-yl)amino)methyl)-5-((3′-(3-(3-hydroxypyrrolidin-1-yl)propoxy)-2,2′-dimethyl-[1,1′-biphenyl]-3-yl)methoxy)-3-methylphenoxy)methyl)nicotinonitrile]	0.21 to 10 nM
Cc1cc(OCc2cccc(-c3cccc(OCCCN4CC[C@@H](O)C4)c3C)c2C)cc(OCc2cncc(C#N)c2)c1CN(CCO)CCO [Example 4090, (R)-5-((2-((bis(2-hydroxyethyl)amino)methyl)-5-((3′-(3-(3-hydroxypyrrolidin-1-yl)propoxy)-2,2′-dimethyl-[1,1′-biphenyl]-3-yl)methoxy)-3-methylphenoxy)methyl)nicotinonitrile]	0.21 to 10 nM
Cc1cc(OCc2cccc(-c3cccc(OCCCN4CC[C@@H](O)C4)c3C)c2C)cc(OCc2cncc(C#N)c2)c1CN[C@@](C)(CO)C(=O)O [Example 4091, (S)-2-((2-((5-cyanopyridin-3-yl)methoxy)-4-((3′-(3-((R)-3-hydroxypyrrolidin-1-yl)propoxy)-2,2′-dimethyl-[1,1′-biphenyl]-3-yl)methoxy)-6-methylbenzyl)amino)-3-hydroxy-2-methylpropanoic Acid]	0.21 to 10 nM
Cc1c(COc2cc(OCc3cncc(C#N)c3)c(CN(C)[C@@](C)(CO)C(=O)O)c(C)c2Cl)cccc1-c1cccc(OCCCN2CC[C@@H](O)C2)c1C [Example 4100, (S)-2-((3-chloro-6-((5-cyanopyridin-3-yl)methoxy)-4-((3′-(3-((R)-3-hydroxypyrrolidin-1-yl)propoxy)-2,2′-dimethyl-[1,1′-biphenyl]-3-yl)methoxy)-2-methylbenzyl)(methyl)amino)-3-hydroxy-2-methylpropanoic Acid]	0.21 to 10 nM
Cc1c(COc2cc(OCc3cncc(C#N)c3)c(CN3CCCC[C@H]3C(=O)O)c(C)c2Cl)cccc1-c1cccc(OCCCN2CC[C@@H](O)C2)c1C [Example 4101, (S)-1-(3-chloro-6-((5-cyanopyridin-3-yl)methoxy)-4-((3′-(3-((R)-3-hydroxypyrrolidin-1-yl)propoxy)-2,2′-dimethyl-[1,1′-biphenyl]-3-yl)methoxy)-2-methylbenzyl)piperidine-2-carboxylic Acid]	0.21 to 10 nM
Cc1c(COc2cc(OCc3cncc(C#N)c3)c(CNC(CO)CO)c(C)c2Cl)cccc1-c1cccc(OCCCN2CC[C@@H](O)C2)c1C [Example 4102, (R)-5-((4-chloro-2-(((1,3-dihydroxypropan-2-yl)amino)methyl)-5-((3′-(3-(3-hydroxypyrrolidin-1-yl)propoxy)-2,2′-dimethyl-[1,1′-biphenyl]-3-yl)methoxy)-3-methylphenoxy)methyl)nicotinonitrile]	0.21 to 10 nM
Cc1c(COc2cc(OCc3cncc(C#N)c3)c(CNC(C)(CO)CO)c(C)c2Cl)cccc1-c1cccc(OCCCN2CC[C@@H](O)C2)c1C [Example 4103, (R)-5-((4-chloro-2-(((1,3-dihydroxy-2-methylpropan-2-yl)amino)methyl)-5-((3′-(3-(3-hydroxypyrrolidin-1-yl)propoxy)-2,2′-dimethyl-[1,1′-biphenyl]-3-yl)methoxy)-3-methylphenoxy)methyl)nicotinonitrile]	0.21 to 10 nM
Cc1c(COc2cc(OCc3cncc(C#N)c3)c(CNC(CO)(CO)CO)c(C)c2Cl)cccc1-c1cccc(OCCCN2CC[C@@H](O)C2)c1C [Example 4104, (R)-5-((4-chloro-2-(((1,3-dihydroxy-2-(hydroxymethyl)propan-2-yl)amino)methyl)-5-((3′-(3-(3-hydroxypyrrolidin-1-yl)propoxy)-2,2′-dimethyl-[1,1′-biphenyl]-3-yl)methoxy)-3-methylphenoxy)methyl)nicotinonitrile]	0.21 to 10 nM
Cc1c(COc2cc(OCc3cncc(C#N)c3)c(CN(CCO)CCO)c(C)c2Cl)cccc1-c1cccc(OCCCN2CC[C@@H](O)C2)c1C [Example 4105, (R)-5-((2-((bis(2-hydroxyethyl)amino)methyl)-4-chloro-5-((3′-(3-(3-hydroxypyrrolidin-1-yl)propoxy)-2,2′-dimethyl-[1,1′-biphenyl]-3-yl)methoxy)-3-methylphenoxy)methyl)nicotinonitrile]	0.21 to 10 nM
Cc1c(COc2cc(OCc3cncc(C#N)c3)c(CN[C@@](C)(CO)C(=O)O)c(C)c2Cl)cccc1-c1cccc(OCCCN2CC[C@@H](O)C2)c1C [Example 4106, (S)-2-((3-chloro-6-((5-cyanopyridin-3-yl)methoxy)-4-((3′-(3-((R)-3-hydroxypyrrolidin-1-yl)propoxy)-2,2′-dimethyl-[1,1′-biphenyl]-3-yl)methoxy)-2-methylbenzyl)amino)-3-hydroxy-2-methylpropanoic Acid]	0.21 to 10 nM
Cc1c(COc2cc(OCc3cncc(C#N)c3)c(CN(C)C(C)(CO)CO)c(C)c2Cl)cccc1-c1cccc(OCCCN2CC[C@@H](O)C2)c1C [Example 4107, (R)-5-((4-chloro-2-(((1,3-dihydroxy-2-methylpropan-2-yl)(methyl)amino)methyl)-5-((3′-(3-(3-hydroxypyrrolidin-1-yl)propoxy)-2,2′-dimethyl-[1,1′-biphenyl]-3-yl)methoxy)-3-methylphenoxy)methyl)nicotinonitrile]	0.21 to 10 nM
Cc1c(COc2cc(OCc3cncc(C#N)c3)c(CN(C)[C@@](C)(CO)C(=O)O)cc2Cl)cccc1-c1cccc(OCCCN2CC[C@@H](O)C2)c1C [Example 4108, (S)-2-((5-chloro-2-((5-cyanopyridin-3-yl)methoxy)-4-((3′-(3-((R)-3-hydroxypyrrolidin-1-yl)propoxy)-2,2′-dimethyl-[1,1′-biphenyl]-3-yl)methoxy)benzyl)(methyl)amino)-3-hydroxy-2-methylpropanoic Acid]	0.21 to 10 nM
CCN(Cc1cc(Cl)c(OCc2cccc(-c3cccc(OCCCN4CC[C@@H](O)C4)c3C)c2C)cc1OCc1cncc(C#N)c1)[C@@](C)(CO)C(=O)O [Example 4109, (S)-2-((5-chloro-2-((5-cyanopyridin-3-yl)methoxy)-4-((3′-(3-((R)-3-hydroxypyrrolidin-1-yl)propoxy)-2,2′-dimethyl-[1,1′-biphenyl]-3-yl)methoxy)benzyl)(ethyl)amino)-3-hydroxy-2-methylpropanoic Acid]	0.21 to 10 nM
Cc1c(COc2cc(OCc3cncc(C#N)c3)c(CNC3(C(=O)O)CC3)cc2Cl)cccc1-c1cccc(OCCCN2CC[C@@H](O)C2)c1C [Example 4110, (R)-1-((5-chloro-2-((5-cyanopyridin-3-yl)methoxy)-4-((3′-(3-(3-hydroxypyrrolidin-1-yl)propoxy)-2,2′-dimethyl-[1,1′-biphenyl]-3-yl)methoxy)benzyl)amino)cyclopropane-1-carboxylic Acid]	0.21 to 10 nM
Cc1c(COc2cc(OCc3cncc(C#N)c3)c(CN(CCO)[C@@](C)(CO)C(=O)O)cc2Cl)cccc1-c1cccc(OCCCN2CC[C@@H](O)C2)c1C [Example 4111, (S)-2-((5-chloro-2-((5-cyanopyridin-3-yl)methoxy)-4-((3′-(3-((R)-3-hydroxypyrrolidin-1-yl)propoxy)-2,2′-dimethyl-[1,1′-biphenyl]-3-yl)methoxy)benzyl)(2-hydroxyethyl)amino)-3-hydroxy-2-methylpropanoic Acid]	0.21 to 10 nM
Cc1c(COc2cc(OCc3cncc(C#N)c3)c(CN3CCCC[C@H]3C(=O)O)cc2Cl)cccc1-c1cccc(OCCCN2CCC(F)(F)C2)c1C [Example 4112, (S)-1-(5-chloro-2-((5-cyanopyridin-3-yl)methoxy)-4-((3′-(3-(3,3-difluoropyrrolidin-1-yl)propoxy)-2,2′-dimethyl-[1,1′-biphenyl]-3-yl)methoxy)benzyl)piperidine-2-carboxylic Acid]	0.21 to 10 nM
Cc1c(COc2cc(OCc3cncc(C#N)c3)c(CN(CCO)CCCO)cc2Cl)cccc1-c1cccc(OCCCN2CCC(F)(F)C2)c1C [Example 4113]	0.21 to 10 nM
Cc1c(COc2cc(OCc3cncc(C#N)c3)c(CN(C)C(C)(CO)CO)cc2Cl)cccc1-c1cccc(OCCCN2CCC(F)(F)C2)c1C [Example 4114, 5-((4-chloro-5-((3′-(3-(3,3-difluoropyrrolidin-1-yl)propoxy)-2,2′-dimethyl-[1,1′-biphenyl]-3-yl)methoxy)-2-(((1,3-dihydroxy-2-methylpropan-2-yl)(methyl)amino)methyl)phenoxy)methyl)nicotinonitrile]	0.21 to 10 nM
Cc1c(COc2cc(OCc3cncc(C#N)c3)c(CN(C)[C@@](C)(CO)C(=O)O)cc2Cl)cccc1-c1cccc(OCCCN2CCC(F)(F)C2)c1C [Example 4115, (S)-2-((5-chloro-2-((5-cyanopyridin-3-yl)methoxy)-4-((3′-(3-(3,3-difluoropyrrolidin-1-yl)propoxy)-2,2′-dimethyl-[1,1′-biphenyl]-3-yl)methoxy)benzyl)(methyl)amino)-3-hydroxy-2-methylpropanoic Acid]	0.21 to 10 nM
